Consider four compounds from patent US10464920B2, “Vicinal primary diamines associated with metal and/or free radical chelation motifs, and active against carbonyl and oxidative stress, and use thereof” (UNIVERSITE AMIENS PICARDIE JULES VERNE, priority 2015, dated 2019).

In experiment [1] the test system is human fibroblasts (MRC-5). In words: Anti-apoptotic properties after MGO-induced apoptosis (ELISA) on MRC-5. To be noted: MRC-5, pretreated 1 h with 10 or 100 μM, then 2 mM MGO, 24 h. The class given is cell-based. The method, then:
(§1) The apoptosis of cells is evaluated by an ELISA method using two murine monoconal antibodies with one directed against the DNA and the other against the histones ([…] Cell Death Detection kit, Roche, Meylan, France). This technique makes it possible to specifically measure the mono- and oligo-nucleosomes in the cytoplasmic fraction of the cell lysates.
(§2) Briefly, the cells are inoculated in 96-well or 24-well plates at a rate of 5.10^3 cells/well for the Bend.3 and PC12 and 75.10^3 cells/well for the MRCS in the suitable medium until subconfluence. The cells are then washed with PBS, then treated with various concentrations (10 μM, 100 μM) of the products to be tested in triplicates for 30 min to 1 h (cellules PC12 and Bend.3) or 1 h (cellules MRCS) at 37° C. The solution of MGO (1 mM for the cellules PC12, 2 mM for the cellules Bend.3 and MRCS) is then added for an incubation of 24 h. […] A peroxidase combined with anti-DNA antibodies then reacts in the presence of the substrate thereof, ABTS (diammonium 2,2′-azino-bis(3-ethylbenzothiazoline-6-sulphonate) and H2O2 in order to give a green derivative of which the optical density reflects the level of apoptosis. The measurement of the absorbance is taken at 405 nm using a Perkin Elmer 2103 Envision® microplate reader. A positive control is carried out in the presence of MGO alone. […]
For orientation: In an ELISA, binding on a coated surface is turned into a signal by an enzyme label.

Experiment [2] can be described thus: Formation of adducts with MDA, kinetic study by HPLC. The format is physicochemical. The settings on record: compound 10 mM, MDA 20 mM, 37° C., after 24 h of reaction; no HPLC separation, trend. The method, then: The compounds to be tested are incubated at 37° C. in the presence of MGO or of MDA. A kinetic study aiming to report on the formation of adducts with the MGO or MDA is then carried out via HPLC analysis.
The compounds to be tested (30 μmol) are dissolved in PBS (1.5 mL). An aqueous solution (qsp 1.25 mL) of MGO at 40% in water (250 μmol) is then prepared and in parallel, MDA bis-(diOEt)-acetal (250 μmol) is set to react with a solution of HCl 1N (2 eq) in water (qsp 1.25 mL) for 1 h at room temperature. An aqueous solution of NaOH 0.05N is also required to neutralise the reaction medium (5 mL).
The solution of the compound to be tested (625 μL—final concentration in the medium=10 mM) is then set to react with the solution of MGO or of MDA prepared extemporaneously (125 μL—final concentration in the medium=20 mM) in the presence of NaOH 0.05 N (0.5 mL). […]
A sampling of each mixture (100 μL) is taken at regular intervals of time (0.25; 0.5; 1; 5 and 24 h) and stored at −20° C. in order to stop the reaction. […] The proportion of adducts formed with the MGO or MDA (generally, tR=4.1 to 6.8 min) is then measured in relation to the quantity of remaining free scavenger (generally, tR=0.8 to 4.6 min) after measurement of the area under the curve of the corresponding peaks on the UV spectrum (measurements taken for a representative sample).

The subject of experiment [3] is murine endothelial brain cells (bEnd.3). In words: Anti-apoptotic properties after MGO-induced apoptosis (ELISA) on bEnd.3. The format is cell-based. The settings on record: bEnd.3, pretreated 30 min with 10 or 100 μM, then 2 mM MGO, 24 h. The method, then: as §1, §2
Experiment [4] deals with rat pheochromocytoma cells, treated as neuronal cells (PC12). The experiment is described as follows: Anti-apoptotic properties after MGO-induced apoptosis (ELISA) on PC12. The settings on record: 24 h. The class given is cell-based. The method, then: as §1
Briefly, the cells are inoculated in 96-well or 24-well plates at a rate of 5.10^3 cells/well for the Bend.3 and PC12 and 75.10^3 cells/well for the MRCS in the suitable medium until subconfluence. The cells are then washed with PBS, then treated with various concentrations (10 μM, 100 μM) of the products to be tested in triplicates for 30 min to 1 h (cellules PC12 and Bend.3) or 1 h (cellules MRCS) at 37° C. The solution of MGO (1 mM for the cellules PC12, 2 mM for the cellules Bend.3 and MRCS) is then added for an incubation of 24 h. The concentrations of MGO for each cell type were chosen according to literature and a cytotoxicity test (CCK8) that we conducted. The solution of lyse is then added to each well for 30 min at room temperature. The cell lysates are then centrifuged at 200 g for 10 min. Twenty microliters of this cell lysate is then used for the ELISA according to the procedure described by the supplier. The cell lysates are as such applied to a plate covered with anti-Histones antibodies making it possible to view the fragmentation of the DNA. A peroxidase combined with anti-DNA antibodies then reacts in the presence of the substrate thereof, ABTS (diammonium 2,2′-azino-bis(3-ethylbenzothiazoline-6-sulphonate) and H2O2 in order to give a green derivative of which the optical density reflects the level of apoptosis. The measurement of the absorbance is taken at 405 nm using a Perkin Elmer 2103 Envision® microplate reader. A positive control is carried out in the presence of MGO alone.
The apoptosis of the cells is expressed by the mean±standard deviation of triplicates forming a representative experiment or of three independent experiments conducted in triplicate.

[5] abbreviates: PC12, pretreated 30 min with 10 or 100 μM, then 1 mM MGO.

Structures are written as SMILES.

`NCC(N)CCCCNC(=O)CCn1cccc(O)c1=O` (centres unmarked) [Compound 37b, N-(5,6-diaminohexyl)-3-(3-hydroxy-2-oxopyridin-1(2H)-yl)propanamide]: in experiment [1], the anti-apoptotic properties entry is “promising anti-apoptotic properties at 100 μM”.
Turning to `COc1cc(/C=C/C(=O)N2CCN(C(=O)CCC(N)CN)CC2)ccc1O` (centres unmarked) [Compound 29a, (E)-4,5-diamino-1-(4-(3-(4-hydroxy-3-methoxyphenyl)acryloyl)piperazin-1-yl)pentan-1-one], the “adducts with the MDA with regards to the free scavenger” value in experiment [2] is listed as “majority presence of AdD”.
As to `NCC(N)CCC(=O)NCCCn1cccc(O)c1=O` (centres unmarked) [Compound 37c, 4,5-diamino-N-(3-(3-hydroxy-2-oxopyridin-1(2H)-yl)propyl)pentanamide], the anti-apoptotic properties entry in experiment [3] is reported as “very interesting anti-apoptotic properties starting at 10 μM”; in experiment [4] (setting [5]), “very interesting anti-apoptotic properties starting at 10 μM”; in experiment [4] (PC12, pretreated 1 h, 100 μM, 1 mM MGO, three independent experiments in triplicate) it was “confirmed”; in experiment [1], “promising anti-apoptotic properties at 100 μM”.
As for `NCC(N)CCCCNC(=O)c1cc(O)c(O)c(O)c1` (centres unmarked) [Compound 30b, N-(5,6-diaminohexyl)-3,4,5-trihydroxybenzamide], the anti-apoptotic properties result is listed as “very interesting anti-apoptotic properties starting at 10 μM” in experiment [3] and “this trend is confirmed at 100 μM” in experiment [4] (setting [5]).
